According to ChEMBL document CHEMBL3616377, “2-(3'-Indolyl)-N-arylthiazole-4-carboxamides: Synthesis and evaluation of antibacterial and anticancer activities” (Bioorg Med Chem Lett, 2015):
Converted amounts (≈) assume the structure as drawn. The source made the active and inactive calls. The calls are words filed in the database; no cut-off is given here.

Tests used:
Pseudomonas putida [1] = experiment: Antibacterial activity against Pseudomonas putida MTCC 102 after 18 to 24 hrs by broth microdilution method; format: functional
Bacillus subtilis [2] = experiment: Antibacterial activity against Bacillus subtilis MTCC 121 after 18 to 24 hrs by broth microdilution method; format: functional
Escherichia coli [3] = experiment: Antibacterial activity against Escherichia coli MTCC 1652 after 18 to 24 hrs by broth microdilution method; format: functional
Pseudomonas putida [4] = experiment: Antibacterial activity against Pseudomonas putida MTCC 102 after 18 to 24 hrs by agar well diffusion method; format: functional
Staphylococcus aureus [5] = experiment: Antibacterial activity against Staphylococcus aureus MTCC 96 after 18 to 24 hrs by broth microdilution method; format: functional
Escherichia coli [6] = experiment: Antibacterial activity against Escherichia coli MTCC 1652 after 18 to 24 hrs by agar well diffusion method; format: functional
[7] = Solubility of the compound in 0.05 to 0.1% DMSO; format: physicochemical
Staphylococcus aureus [8] = experiment: Antibacterial activity against Staphylococcus aureus MTCC 96 after 18 to 24 hrs by agar well diffusion method; format: functional
Bacillus subtilis [9] = experiment: Antibacterial activity against Bacillus subtilis MTCC 121 after 18 to 24 hrs by agar well diffusion method; format: functional
Pseudomonas putida [10] = experiment: Bactericidal activity against Pseudomonas putida MTCC 102 assessed as reduction of number of bacterial cells at 4 times MIC after 1 to 6 hrs; format: functional, organism-based
Pseudomonas putida [11] = experiment: Bactericidal activity against Pseudomonas putida MTCC 102 assessed as reduction of number of bacterial cells at 4 times MIC after 2 to 3 hrs; format: functional, organism-based
Escherichia coli [12] = experiment: Bactericidal activity against Escherichia coli MTCC 1652 assessed as reduction of number of bacterial cells at 4 times MIC after 1 to 6 hrs; format: functional, organism-based
Escherichia coli [13] = experiment: Bactericidal activity against Escherichia coli MTCC 1652 assessed as reduction of number of bacterial cells at 4 times MIC after 2 to 3 hrs; format: functional, organism-based
HEK-293T [14] = experiment: Cytotoxicity against human HEK293T cells after 48 hrs by MTT assay in absence of 10% FBS; format: cell-based
HeLa [15] = experiment: Cytotoxicity against human HeLa cells after 48 hrs by MTT assay in absence of 10% FBS; format: functional, cell-based
LNCaP [16] = experiment: Cytotoxicity against human LNCAP cells after 48 hrs by MTT assay in presence of 10% FBS; format: functional, cell-based
HEK-293T [17] = experiment: Cytotoxicity against human HEK293T cells after 48 hrs by MTT assay in presence of 10% FBS; format: cell-based
MDA-MB-231 [18] = experiment: Cytotoxicity against human MDA-MB-231 cells after 48 hrs by MTT assay in presence of 10% FBS; format: functional, cell-based; conditions: MDA-MB-231, 48 h
HeLa [19] = experiment: Cytotoxicity against human HeLa cells after 48 hrs by MTT assay in presence of 10% FBS; format: functional, cell-based
[20] = Cytotoxicity against human castration-resistant C4-2 cells after 48 hrs by MTT assay in presence of 10% FBS; format: functional, cell-based; conditions: LNCaP C4-2, 48 h
PC-3 [21] = experiment: Cytotoxicity against human PC3 cells after 48 hrs by MTT assay in presence of 10% FBS; format: functional, cell-based; conditions: PC-3, 48 h
MDA-MB-231 [22] = experiment: Cytotoxicity against human MDA-MB-231 cells after 48 hrs by MTT assay in absence of 10% FBS; format: functional, cell-based; conditions: MDA-MB-231, 48 h
LNCaP [23] = experiment: Cytotoxicity against human LNCAP cells after 48 hrs by MTT assay in absence of 10% FBS; format: functional, cell-based
[24] = Cytotoxicity against human castration-resistant C4-2 cells after 48 hrs by MTT assay in absence of 10% FBS; format: functional, cell-based; conditions: LNCaP C4-2, 48 h
PC-3 [25] = experiment: Cytotoxicity against human PC3 cells after 48 hrs by MTT assay in absence of 10% FBS; format: functional, cell-based; conditions: PC-3, 48 h
HeLa [26] = experiment: Induction of apoptosis in human HeLa cells assessed as formation of apoptotic nuclei formation at 10 uM after 24 hrs using propidium iodide staining by fluorescence microscopy analysis; format: functional, cell-based

Compound | MIC (Pseudomonas putida [1]) | MIC (Bacillus subtilis [2]) | MIC (Escherichia coli [3]) | inhibition zone (IZ) (Pseudomonas putida [4]) | MIC (Staphylococcus aureus [5]) | inhibition zone (IZ) (Escherichia coli [6]) | inhibition zone (IZ) (Staphylococcus aureus [8]) | inhibition zone (IZ) (Bacillus subtilis [9]) | IC50 (HEK-293T [14]) | IC50 (HeLa [15]) | IC50 (LNCaP [16]) | IC50 (HEK-293T [17]) | IC50 (MDA-MB-231 [18]) | IC50 (HeLa [19]) | IC50 [20] | IC50 (PC-3 [21]) | IC50 (MDA-MB-231 [22]) | IC50 (LNCaP [23]) | IC50 [24] | IC50 (PC-3 [25]) | other results
O=C(Nc1ccc(F)cc1)c1csc(-c2c[nH]c3ccccc23)n1 | 100 µg/mL (≈ 296 µM) | 100 µg/mL (≈ 296 µM) | 100 µg/mL (≈ 296 µM) | 12 mm | 100 µg/mL (≈ 296 µM) | 13 mm | 12 mm | 10 mm |  |  |  |  |  |  |  |  |  |  |  |  | solubility [7]: Insoluble
COc1ccc(NC(=O)c2csc(-c3c[nH]c4ccc(Br)cc34)n2)cc1 | 12.5 µg/mL (≈ 29.2 µM) | 50 µg/mL (≈ 117 µM) | 12.5 µg/mL (≈ 29.2 µM) | 16 mm | 50 µg/mL (≈ 117 µM) | 15 mm | 14 mm | 15 mm |  |  |  |  |  |  |  |  |  |  |  |  | Activity (Pseudomonas putida [10]): Active; Activity (Pseudomonas putida [11]): Active; solubility [7]: Insoluble; Activity (Escherichia coli [12]): Active; Activity (Escherichia coli [13]): Active
COc1ccc(NC(=O)c2csc(-c3cn(Cc4ccc(Cl)cc4)c4ccccc34)n2)cc1 | 12.5 µg/mL (≈ 26.4 µM) | 50 µg/mL (≈ 105 µM) | 12.5 µg/mL (≈ 26.4 µM) | 16 mm | 100 µg/mL (≈ 211 µM) | 16 mm | 14 mm | 15 mm | > 100 µM | > 100 µM | > 100 µM | > 100 µM | > 100 µM | 90.9 µM | > 100 µM | > 100 µM | 84.9 µM | > 100 µM | > 100 µM | > 100 µM | 
O=C(Nc1ccccc1)c1csc(-c2c[nH]c3ccccc23)n1 | 100 µg/mL (≈ 313 µM) |  | 100 µg/mL (≈ 313 µM) | 13 mm | 50 µg/mL (≈ 157 µM) | 13 mm | 14 mm |  | 41.1 µM | > 100 µM | > 100 µM | > 100 µM | > 100 µM | > 100 µM | > 100 µM | > 100 µM | 79.4 µM | > 100 µM | > 100 µM | > 100 µM | 
COc1cc(NC(=O)c2csc(-c3c[nH]c4ccccc34)n2)cc(OC)c1OC | 100 µg/mL (≈ 244 µM) | 50 µg/mL (≈ 122 µM) | 50 µg/mL (≈ 122 µM) | 13 mm | 100 µg/mL (≈ 244 µM) | 14 mm | 12 mm | 14 mm |  |  |  |  |  |  |  |  |  |  |  |  | solubility [7]: Insoluble
COc1ccc(NC(=O)c2csc(-c3c[nH]c4ccc(F)cc34)n2)cc1 | 100 µg/mL (≈ 272 µM) | 100 µg/mL (≈ 272 µM) | 50 µg/mL (≈ 136 µM) | 13 mm | 100 µg/mL (≈ 272 µM) | 14 mm | 12 mm | 13 mm | 12.1 µM | 3.41 µM | 75.4 µM | > 100 µM | > 100 µM | 33.5 µM | > 100 µM | > 100 µM | 49.4 µM | 66.4 µM | > 100 µM | > 100 µM | 
O=C(NCc1ccccc1)c1csc(-c2c[nH]c3ccccc23)n1 | 100 µg/mL (≈ 300 µM) |  | 100 µg/mL (≈ 300 µM) | 13 mm |  | 13 mm |  |  | > 100 µM | 9.51 µM | > 100 µM | 74.5 µM | > 100 µM | 41.4 µM | > 100 µM | > 100 µM | > 100 µM | > 100 µM | > 100 µM | > 100 µM | 
O=C(Nc1ccccc1)c1csc(-c2cn(Cc3ccc(Cl)cc3)c3ccccc23)n1 | 50 µg/mL (≈ 113 µM) | 100 µg/mL (≈ 225 µM) | 50 µg/mL (≈ 113 µM) | 15 mm | 100 µg/mL (≈ 225 µM) | 15 mm | 12 mm | 13 mm | > 100 µM | 24.3 µM | 68.9 µM | > 100 µM | > 100 µM | 32.1 µM | > 100 µM | > 100 µM | 50.5 µM | 64.1 µM | > 100 µM | 76.4 µM | 
COc1ccc(NC(=O)c2csc(-c3c[nH]c4ccccc34)n2)cc1 | 100 µg/mL (≈ 286 µM) | 100 µg/mL (≈ 286 µM) | 50 µg/mL (≈ 143 µM) | 12 mm | 100 µg/mL (≈ 286 µM) | 14 mm | 11 mm | 12 mm |  |  |  |  |  |  |  |  |  |  |  |  | solubility [7]: Insoluble
COc1cc(NC(=O)c2csc(-c3c[nH]c4ccc(F)cc34)n2)cc(OC)c1OC | 50 µg/mL (≈ 117 µM) | 100 µg/mL (≈ 234 µM) | 50 µg/mL (≈ 117 µM) | 14 mm | 100 µg/mL (≈ 234 µM) | 14 mm | 12 mm | 10 mm | > 100 µM | > 100 µM | 88.5 µM | 66 µM | > 100 µM | 48.9 µM | > 100 µM | > 100 µM | > 100 µM | > 100 µM | > 100 µM | 89 µM | 
CN(C)c1ccc(NC(=O)c2csc(-c3c[nH]c4ccccc34)n2)cc1 | 50 µg/mL (≈ 138 µM) | 50 µg/mL (≈ 138 µM) | 100 µg/mL (≈ 276 µM) | 14 mm | 100 µg/mL (≈ 276 µM) | 12 mm | 13 mm | 14 mm |  |  |  |  |  |  |  |  |  |  |  |  | solubility [7]: Insoluble
COc1cc(NC(=O)c2csc(-c3cn(Cc4ccc(Cl)cc4)c4ccccc34)n2)cc(OC)c1OC | 100 µg/mL (≈ 187 µM) | 100 µg/mL (≈ 187 µM) | 50 µg/mL (≈ 93.6 µM) | 14 mm | 100 µg/mL (≈ 187 µM) | 15 mm | 13 mm | 12 mm | 58.7 µM | 91.4 µM | > 100 µM | > 100 µM | > 100 µM | > 100 µM | > 100 µM | > 100 µM | > 100 µM | 97.7 µM | > 100 µM | > 100 µM | 
COc1cccc2c1C(=O)c1c(O)c3c(c(O)c1C2=O)C[C@@](O)(C(=O)CO)C[C@@H]3O[C@H]1C[C@H](N)[C@H](O)[C@H](C)O1 [DOXORUBICIN] |  |  |  |  |  |  |  |  | 0.84 µM |  | 7.4 µM | 0.75 µM |  |  | 0.57 µM | 9.8 µM | 6.03 µM | 6.46 µM | 1.02 µM | 7.65 µM | Activity (HeLa [26]): Active
O=C(O)c1cn(C2CC2)c2cc(N3CCNCC3)c(F)cc2c1=O [CIPROFLOXACIN] | 12.5 µg/mL (≈ 37.7 µM) | 6.25 µg/mL (≈ 18.9 µM) |  | 21 mm |  |  | 23 mm | 24 mm |  |  |  |  |  |  |  |  |  |  |  |  | 
Cc1ccc(NC(=O)c2csc(-c3c[nH]c4ccccc34)n2)cc1 | 100 µg/mL (≈ 300 µM) |  | 100 µg/mL (≈ 300 µM) | 12 mm |  | 12 mm |  |  | > 100 µM | > 100 µM | > 100 µM | > 100 µM | > 100 µM | > 100 µM | > 100 µM | > 100 µM | > 100 µM | > 100 µM | > 100 µM | > 100 µM | 
COc1cc(NC(=O)c2csc(-c3c[nH]c4ccc(Br)cc34)n2)cc(OC)c1OC | 12.5 µg/mL (≈ 25.6 µM) | 12.5 µg/mL (≈ 25.6 µM) | 50 µg/mL (≈ 102 µM) | 16 mm | 50 µg/mL (≈ 102 µM) | 14 mm | 15 mm | 16 mm | > 100 µM | 55.8 µM | > 100 µM | 32.8 µM | > 100 µM | 93 µM | > 100 µM | > 100 µM | > 100 µM | > 100 µM | > 100 µM | > 100 µM | 
COc1ccc(NC(=O)c2csc(-c3c[nH]c4ccccc34)n2)cc1OC | 25 µg/mL (≈ 65.9 µM) | 50 µg/mL (≈ 132 µM) | 25 µg/mL (≈ 65.9 µM) | 16 mm | 50 µg/mL (≈ 132 µM) | 16 mm | 14 mm | 14 mm |  |  |  |  |  |  |  |  |  |  |  |  | solubility [7]: Insoluble
